From PMC6804243, “Small-Molecule Inhibition of UBE2T/FANCL-Mediated Ubiquitylation in the Fanconi Anemia Pathway” (ACS Chemical Biology, 2019)
Entries after “also recorded” stand apart in the source; their conditions may differ.

Legend:
UBE2T / GST-FANCLRING = tested on: T1, UBE2T / GST-FANCLRING; test: Gel-based ubiquitylation assay, E2 = UBE2T, E3 = GST-FANCLRING; assay type: biochemical; conditions: compound 100 μM, 30 min at 37 °C, Western blot
T1 construct: the RING domain (residues 275–375) of the E3 FANCL (FANCLRING); His6 (N); made in house; host or cells: E. coli Rosetta (DE3)

[1] = tested on: mUb-FANCD2 (UBE2T and FANCL-dependent monoubiquitylation of FANCD2); test: Immunoblot of mUb-FANCD2 formation in U2OS cells; assay type: cell-based; conditions: for level of mUb-FANCD2 in response to HU: CU1 200 μM or CU2 500 μM, 8 h; for level of mUb-FANCD2 in response to HU / level of mUb-FANCD2: HU 2.5 mM; for level of mUb-FANCD2: compound 100 μM, 1 h preincubation, 24 h
Description: U2OS cells were treated with HU and the formation of mUb-FANCD2 in the presence of CU 1, CU2, and CU9 was evaluated relative to a DMSO control. Following a 1-h preincubation with the compounds, cells were treated with 2.5 mM of HU for 24 h. […] Accordingly, cells were treated with a higher concentration of compounds in further experiments.
Figure 3 Cell-based assays with CU1 and CU2: (a) Western blot showing that the formation of mUb-FANCD2(*), in response to HU treatment (2.5 mM, 8 h), is impaired in U2OS cells in the presence of CU1 (200 μM) or CU2 (500 μM). Ratio = mUb-FANCD2/FANCD2 (normalized to DMSO control). mUb-FANCD2 was resolved on a separate gel. PARP1 was used as a loading control for each gel, as well as to assess apoptosis. (b) Quantification of the reduction in mUb-FANCD2, in response to HU treatment (2.5 mM, 8 h) in the presence of CU1 (200 μM) or CU2 (500 μM). Mean calculated from three independent experiments. (c) Western blot showing that formation of mUb-FANCD2 (denoted by an asterisk symbol, *) in response to cisplatin treatment (10 μM) for 6, 12, and 24 h is impaired in U2OS cells in the presence of CU2 (500 μM). Ratio = mUb-FANCD2/FANCD2 (normalized to DMSO control). (d) Cell cycle analyses based upon EdU incorporation in cells treated with HU (2.5 mM, 8 h) in the presence or absence of CU1 (200 μM) or CU2 (500 μM). HU treatment was used for gating purposes. […] TEXT PRINTED IN THE PICTURE: (d) DMSO: S-phase 42.7; G1 29.2; G2-M 27.8 | (d) HU: S-phase 0.24; G1 72.4; G2-M 22.9 | (d) CU1: S-phase 43.4; G1 26.8; G2-M 29.1 | (d) CU2: S-phase 39.7; G1 31.9; G2-M 28.2 DOUBTS OF THE COPYIST ABOUT THIS PICTURE: Panel d print is small, so these digits are best readings: DMSO G2-M 27.8 (8 or 6); CU1 G1 26.8 (6 or 8); CU2 S-phase 39.7 (9 or 8); CU2 G2-M 28.2 (8 or 6) / Panels a and c: the lane ratios printed under the western blots (a: 1.0, 0.64, 0.40; c: 1.0/0.65, 1.0/0.63, 1.0/0.53) were left out because they belong to blots and the picture prints no measure for them […]
Reaction mixtures were incubated for the indicated time at 37 °C and stopped by the addition of 2X reducing SDS -PAGE sample buffer, separated on NuPAGE Novex 4 –12% Bis/Tris gradient gels (Invitrogen) and visualized by Western blotting using the indicated antibodies (Table S3).
Cell culture. U2OS cells were cultured at 37 °C in a humidified atmosphere and 5% (v/v) CO2 in Dulbecco's Modified Eagle Medium (DMEM; Sigma-Aldrich) supplemented with 10% (v/v) fetal bovine serum (FBS), 100 units/ml of penicillin, […] of streptomycin and 292 μg/mL L-glutamine.
Cell extract preparation and immunoblotting. U2OS cells were lysed in buffer containing 50 mM Tris-HCl pH 7.5, 2% SDS, 10 mM NEM, cocktail protease inhibitor (Roche) and phosphatase inhibitor cocktail followed by sonication 100 µg of extracts were boiled for 5 mins at 95 °C in 5X loading buffer and loaded onto NuPAGE Novex 4–12% Bis/Tris gradient gels
(Invitrogen), or NuPAGE Novex 3-8% Tris/Acetate gradient gels (Invitrogen) for detection of mUb-FANCD2. After separation the gels were transferred to PVDF and the membranes were blocked with Tris-buffered saline containing 0.1% (v/v) Tween-20 (TBST) and 5% (v/v) bovine serum albumin (BSA) and incubated with the indicated primary and secondary antibodies. mUb-FANCD2 intensity was quantified using Image Studio (LI-COR).
IncuCyte cell proliferation assays. 2000 U2OS cells were seeded per well in 96-well plates and treated with compounds 24 hours afterwards. After 1 hour of compound treatment, 15 µM carboplatin (Sigma-Aldrich) was added and the cells were cultured in an incubator with an IncuCyte microscopy -platform (Essen BioScience). Phase -contrast images were acquired every 6 hours for 8 days until DMSO-carboplatin treated cells reached >80% confluence. Cell proliferation was monitored as the occupied area (% confluence) of cell images over time and calculated as percentage confluence over time. Cell confluency […]

Row | Compound | ubiquitylation of GST-FANCLRING (mUb-GST-FANCLRING band) (UBE2T / GST-FANCLRING) | ubiquitylation of GST-FANCLRING (mUb-GST-FANCLRING band) (UBE2T / GST-FANCLRING; listed as CU 1) | level of mUb-FANCD2 in response to HU [1] | level of mUb-FANCD2 [1] | level of mUb-FANCD2 in response to cisplatin ([1]; CU2 500 μM, cisplatin 10 μM for 6, 12 and 24 h)
1 | NCCN1C(=O)CC[C@H]2CN(Cc3cccc(-c4ccco4)c3)CC[C@H]21 [CU1] | no ubiquitylation of FANCLRING was observed; also recorded: inhibit the ubiquitylation of GST-FANCLRING | completely inhibited the ubiquitylation of GST-FANCLRING | reduced the level of mUb-FANCD2 | no significant decrease in the level of mUb-FANCD2 | –
2 | CCN1CCN(c2cc(C)nc3nc(CN4CCCCC4C)nn23)CC1 (centres unmarked) [CU2] | no ubiquitylation of FANCLRING was observed; also recorded: inhibit the ubiquitylation of GST-FANCLRING; also recorded: completely inhibited the ubiquitylation of GST-FANCLRING | – | reduced the level of mUb-FANCD2 | no significant decrease in the level of mUb-FANCD2 | reduced the level of mUb-FANCD2
3 | Cc1nnc(N(C)CC2CCN(CC(C)O)CC2)c(C#N)c1C (centres unmarked) [CU9] | no ubiquitylation of FANCLRING was observed; also recorded: inhibit the ubiquitylation of GST-FANCLRING; also recorded: completely inhibited the ubiquitylation of GST-FANCLRING | – | – | no significant decrease in the level of mUb-FANCD2 | –
4 | NC(=O)[C@@H]1CCCN1C(=O)c1cc(-n2cccc2)ccc1Cl [CU12] | no ubiquitylation of FANCLRING was observed | – | – | – | –
